# Source: ChEMBL document CHEMBL1137108, “Antiviral compounds from traditional Chinese medicines Galla Chinese as inhibitors of HCV NS3 protease” (Bioorg Med Chem Lett, 2004)
# Target: NS3 (Hepatitis C virus, UniProt A3EZJ3)
# Experiment: Inhibitory activity against Hepatitis C virus NS3 protease by ELISA
# Set-up: species or system Hepacivirus hominis
# NS3, sequence (A3EZJ3 whole entry): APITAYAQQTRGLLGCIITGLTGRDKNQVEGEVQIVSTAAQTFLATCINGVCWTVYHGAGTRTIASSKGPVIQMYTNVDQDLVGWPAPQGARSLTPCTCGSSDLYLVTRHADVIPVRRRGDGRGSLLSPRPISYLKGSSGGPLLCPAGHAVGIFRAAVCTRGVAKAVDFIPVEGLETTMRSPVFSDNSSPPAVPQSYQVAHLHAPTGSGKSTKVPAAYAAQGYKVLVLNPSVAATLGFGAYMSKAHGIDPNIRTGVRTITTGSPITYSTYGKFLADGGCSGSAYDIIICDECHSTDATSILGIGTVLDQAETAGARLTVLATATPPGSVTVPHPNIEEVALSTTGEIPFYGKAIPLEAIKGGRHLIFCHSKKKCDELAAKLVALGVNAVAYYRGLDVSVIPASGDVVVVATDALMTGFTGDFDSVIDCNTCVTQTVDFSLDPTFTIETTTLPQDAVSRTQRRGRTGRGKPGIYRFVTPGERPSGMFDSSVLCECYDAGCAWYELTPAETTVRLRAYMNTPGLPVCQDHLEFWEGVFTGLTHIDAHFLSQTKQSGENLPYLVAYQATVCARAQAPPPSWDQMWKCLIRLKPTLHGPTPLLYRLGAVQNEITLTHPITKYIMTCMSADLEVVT
row,Compound,IC50
1,O=C(OC[C@H]1O[C@@H](OC(=O)c2cc(O)c(O)c(O)c2)[C@H](OC(=O)c2cc(O)c(O)c(O)c2)[C@@H](O)[C@@H]1O)c1cc(O)c(O)c(O)c1,1.89 µM
2,O=C(OC[C@H]1O[C@H](OC(=O)c2cc(O)c(O)c(O)c2)[C@H](OC(=O)c2cc(O)c(O)c(O)c2)[C@@H](OC(=O)c2cc(O)c(O)c(O)c2)[C@@H]1O)c1cc(O)c(O)c(O)c1,0.75 µM
3,O=C(OC[C@H]1O[C@@H](OC(=O)c2cc(O)c(O)c(O)c2)[C@H](OC(=O)c2cc(O)c(O)c(O)c2)[C@@H](OC(=O)c2cc(O)c(O)c(O)c2)[C@@H]1OC(=O)c1cc(O)c(O)c(O)c1)c1cc(O)c(O)c(O)c1 [PENTAGALLOYL GLUCOSE],1.6 µM
